Tested on: Rh18 complex spheroid viability, percent test/control
Experiment: Anticancer human tumor Rh18 cell line growth inhibition [Asc];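 further: spheroids exposed to compound for 7 days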;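 on viability, T/C: 100% = DMSO vehicle control wells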
Details: for IC50: curve of first compound; for viability, T/C: stronger effect = lower value
Method in brief: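 Complex spheroids combining tumor cells with HUVEC endothelial cells and human MSCs, at 37 degrees C, 5% CO2; agents tested alone or combined, half-log dilutions from at or near clinical Cmax, or 10 microM if Cmax unknown.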

Cc1nc(N2CCC3(CC2)COC(C)C3N)c(CO)nc1Sc1ccnc(N)c1Cl (stereo not given) + Cc1c(S(C)(=O)=O)c(-c2cc(F)cc(N3CCN(c4ccc(NS(=O)(=O)c5ccc(NC(CCN6CCC(C(=O)OCCCP(=O)(O)O)CC6)CSc6ccccc6)c(S(=O)(=O)C(F)(F)F)c5)cc4)CC3)c2)c(-c2ccc(Cl)cc2)n1C(C)C
IC50 (second compound 0.1 µM): < 9.49 nM | IC50 (second compound 0.316 µM): < 9.49 nM | IC50 (second compound 1 µM): < 9.49 nM | IC50 (second compound 3.16 µM): < 9.49 nM | IC50 (second compound 10 µM): < 9.49 nM | viability, T/C (second compound 0.1 µM, first compound 0.00949 µM): 11.9% | viability, T/C (second compound 0.1 µM, first compound 0.03 µM): 11.6% | viability, T/C (second compound 0.1 µM, first compound 0.0949 µM): 11.1% | viability, T/C (second compound 0.1 µM, first compound 0.3 µM): 7.3% | viability, T/C (second compound 0.1 µM, first compound 0.949 µM): 7.66% | viability, T/C (second compound 0.1 µM, first compound 3 µM): 5.44% | viability, T/C (second compound 0.316 µM, first compound 0.00949 µM): 8.93% | viability, T/C (second compound 0.316 µM, first compound 0.03 µM): 9.76% | viability, T/C (second compound 0.316 µM, first compound 0.0949 µM): 7.87% | viability, T/C (second compound 0.316 µM, first compound 0.3 µM): 5.11% | viability, T/C (second compound 0.316 µM, first compound 0.949 µM): 5.06% | viability, T/C (second compound 0.316 µM, first compound 3 µM): 4.22% | viability, T/C (second compound 1 µM, first compound 0.00949 µM): 7.05% | viability, T/C (second compound 1 µM, first compound 0.03 µM): 7.01% | viability, T/C (second compound 1 µM, first compound 0.0949 µM): 6.81% | viability, T/C (second compound 1 µM, first compound 0.3 µM): 4.44% | viability, T/C (second compound 1 µM, first compound 0.949 µM): 4.09% | viability, T/C (second compound 1 µM, first compound 3 µM): 2.1% | viability, T/C (second compound 3.16 µM, first compound 0.00949 µM): 4.29% | viability, T/C (second compound 3.16 µM, first compound 0.03 µM): 6.13% | viability, T/C (second compound 3.16 µM, first compound 0.0949 µM): 4.92% | viability, T/C (second compound 3.16 µM, first compound 0.3 µM): 3.71% | viability, T/C (second compound 3.16 µM, first compound 0.949 µM): 2.47% | viability, T/C (second compound 3.16 µM, first compound 3 µM): 2.4% | viability, T/C (second compound 10 µM, first compound 0.00949 µM): 4.54% | viability, T/C (second compound 10 µM, first compound 0.03 µM): 4.83% | viability, T/C (second compound 10 µM, first compound 0.0949 µM): 3.89% | viability, T/C (second compound 10 µM, first compound 0.3 µM): 3.77% | viability, T/C (second compound 10 µM, first compound 0.949 µM): 2.82% | viability, T/C (second compound 10 µM, first compound 3 µM): 1.96%

COc1c(OCCCN2CCOCC2)ccc2c3n(c(=NC(=O)c4cnc(N)nc4)nc12)CCN3 + CCN1C(C(=O)NC23CCC(C(=O)O)(CC2)CC3)C(c2cccc(Cl)c2F)C2(C(=O)Nc3cc(Cl)ccc32)C12CCCCC2
IC50 (second compound 0.03 µM): < 3.16 nM | IC50 (second compound 0.0949 µM): < 3.16 nM | IC50 (second compound 0.3 µM): < 3.16 nM | IC50 (second compound 0.949 µM): < 3.16 nM | IC50 (second compound 3 µM): < 3.16 nM | viability, T/C (second compound 0.03 µM, first compound 0.00316 µM): 36.4% | viability, T/C (second compound 0.03 µM, first compound 0.01 µM): 27.2% | viability, T/C (second compound 0.03 µM, first compound 0.0316 µM): 15.1% | viability, T/C (second compound 0.03 µM, first compound 0.1 µM): 6.81% | viability, T/C (second compound 0.03 µM, first compound 0.316 µM): 3.01% | viability, T/C (second compound 0.03 µM, first compound 1 µM): 0.78% | viability, T/C (second compound 0.0949 µM, first compound 0.00316 µM): 17.8% | viability, T/C (second compound 0.0949 µM, first compound 0.01 µM): 16.1% | viability, T/C (second compound 0.0949 µM, first compound 0.0316 µM): 9.67% | viability, T/C (second compound 0.0949 µM, first compound 0.1 µM): 4.3% | viability, T/C (second compound 0.0949 µM, first compound 0.316 µM): 1.95% | viability, T/C (second compound 0.0949 µM, first compound 1 µM): 0.74% | viability, T/C (second compound 0.3 µM, first compound 0.00316 µM): 11% | viability, T/C (second compound 0.3 µM, first compound 0.01 µM): 11% | viability, T/C (second compound 0.3 µM, first compound 0.0316 µM): 6.7% | viability, T/C (second compound 0.3 µM, first compound 0.1 µM): 3.81% | viability, T/C (second compound 0.3 µM, first compound 0.316 µM): 1.38% | viability, T/C (second compound 0.3 µM, first compound 1 µM): 0.96% | viability, T/C (second compound 0.949 µM, first compound 0.00316 µM): 10.3% | viability, T/C (second compound 0.949 µM, first compound 0.01 µM): 9.29% | viability, T/C (second compound 0.949 µM, first compound 0.0316 µM): 5.17% | viability, T/C (second compound 0.949 µM, first compound 0.1 µM): 2.9% | viability, T/C (second compound 0.949 µM, first compound 0.316 µM): 1.19% | viability, T/C (second compound 0.949 µM, first compound 1 µM): 0.83% | viability, T/C (second compound 3 µM, first compound 0.00316 µM): 10.2% | viability, T/C (second compound 3 µM, first compound 0.01 µM): 8.55% | viability, T/C (second compound 3 µM, first compound 0.0316 µM): 7.12% | viability, T/C (second compound 3 µM, first compound 0.1 µM): 3.01% | viability, T/C (second compound 3 µM, first compound 0.316 µM): 3.28% | viability, T/C (second compound 3 µM, first compound 1 µM): 1.16%

NC1CCC(NC2CC2c2ccccc2)CC1 (stereo not given) + CNC(C)C(=O)NC1CN(S(=O)(=O)c2cccc(S(=O)(=O)N3CCC4CCC(C(=O)NC(c5ccccc5)c5ccccc5)N4C(=O)C(NC(=O)C(C)NC)C3)c2)CCC2CCC(C(=O)NC(c3ccccc3)c3ccccc3)N2C1=O
IC50 (second compound 0.01 µM): > 100 nM | IC50 (second compound 0.0316 µM): > 100 nM | IC50 (second compound 0.1 µM): < 0.316 nM | IC50 (second compound 0.316 µM): > 100 nM | IC50 (second compound 1 µM): < 0.316 nM | viability, T/C (second compound 0.01 µM, first compound 0.000316 µM): 53.7% | viability, T/C (second compound 0.01 µM, first compound 0.001 µM): 72.9% | viability, T/C (second compound 0.01 µM, first compound 0.00316 µM): 72.5% | viability, T/C (second compound 0.01 µM, first compound 0.01 µM): 66.5% | viability, T/C (second compound 0.01 µM, first compound 0.0316 µM): 65.1% | viability, T/C (second compound 0.01 µM, first compound 0.1 µM): 61.5% | viability, T/C (second compound 0.0316 µM, first compound 0.000316 µM): 53% | viability, T/C (second compound 0.0316 µM, first compound 0.001 µM): 53.9% | viability, T/C (second compound 0.0316 µM, first compound 0.00316 µM): 53.5% | viability, T/C (second compound 0.0316 µM, first compound 0.01 µM): 61.5% | viability, T/C (second compound 0.0316 µM, first compound 0.0316 µM): 53.1% | viability, T/C (second compound 0.0316 µM, first compound 0.1 µM): 53% | viability, T/C (second compound 0.1 µM, first compound 0.000316 µM): 48.1% | viability, T/C (second compound 0.1 µM, first compound 0.001 µM): 54.7% | viability, T/C (second compound 0.1 µM, first compound 0.00316 µM): 48.7% | viability, T/C (second compound 0.1 µM, first compound 0.01 µM): 55.5% | viability, T/C (second compound 0.1 µM, first compound 0.0316 µM): 52.3% | viability, T/C (second compound 0.1 µM, first compound 0.1 µM): 56.1% | viability, T/C (second compound 0.316 µM, first compound 0.000316 µM): 53.6% | viability, T/C (second compound 0.316 µM, first compound 0.001 µM): 54% | viability, T/C (second compound 0.316 µM, first compound 0.00316 µM): 52.6% | viability, T/C (second compound 0.316 µM, first compound 0.01 µM): 53.1% | viability, T/C (second compound 0.316 µM, first compound 0.0316 µM): 53.6% | viability, T/C (second compound 0.316 µM, first compound 0.1 µM): 59.4% | viability, T/C (second compound 1 µM, first compound 0.000316 µM): 43.8% | viability, T/C (second compound 1 µM, first compound 0.001 µM): 50.9% | viability, T/C (second compound 1 µM, first compound 0.00316 µM): 42.6% | viability, T/C (second compound 1 µM, first compound 0.01 µM): 44.8% | viability, T/C (second compound 1 µM, first compound 0.0316 µM): 50.2% | viability, T/C (second compound 1 µM, first compound 0.1 µM): 56%
